# Experiments:
# [1] = test system: IL-5, IL-13, IL-4 and IFN-γ; assay: Cytokine expression by ELISA in bronchoalveolar lavage and lung tissues (Test Example 4); format: in vivo, BALB/c mice; details: 10 μg intranasal together with GCE
# Description: The […] obtained by the method of 5) was homogenized using the T-PER tissue protein extraction reagent (Thermo Fisher Scientific, MA, US) to prepare a suspension. The suspension was incubated at 4° C. for 30 minutes and then centrifuged at 2500 rpm for 10 minutes. The supernatant was filtered with a 0.45-μm filter to analyze cytokine expression levels.
# (§1) The mice reared according to 1) of Experimental methods were used. Specifically, 120 μg of GCE prepared according to 2) of Experimental methods was intranasally administered to the 8-week-old BALB/c mice twice a week for 3 weeks. 10 μg of dNP2-ctCTLA-4 (Example 2), dNP2-EGFP (Comparative Example 3) or a vehicle (PBS) was intranasally administered together when the GCE was administered to the mice.
# The concentration of IL-5, IL-13, IL-4 and IFN-γ was analyzed with the ELSISA kit and the result was normalized to the total protein concentration of the tissue. The protein concentration was quantified by the Bradford assay. n=5 per each group and the results are presented as mean±s.e.m. (standard error of mean). *p<0.05, **p<0.01.
# In this experiment, the bronchoalveolar lavage (BAL) and lung tissues were recovered from each test group and control group and the expression level of IL-13, IL-4 and Th2 cytokines was compared.
# [2] = test system: GCE-induced allergic asthma animal model; assay: Airway hyperresponsiveness (AHR) to methacholine in GCE-induced allergic asthma animal model (Test Example 2); format: in vivo, BALB/c mice; details: 10 μg intranasal together with GCE twice a week for 3 weeks; measured on day 21
# Description: The mice reared according to the method of 1) were used. Specifically, the 8-week-old BALB/c mice were sensitized by intranasal administration of PBS (sham) or 120 μg of GCE prepared according to the method of 2) twice a week for 3 weeks.
# AHR was measured 4 days after the last GCE administration using a flexiVent 5.1 small-animal ventilator (SCIREQ, Montreal, PQ, Canada). The mice were placed in a whole body plethysmograph (Buxco, USA) and 0.4 mL of methacholine solutions at various concentrations (3.1, 6.25, 12.5, 25 or 50 mg/mL) in aerosols were administered through inhalation for 10 seconds. Penh was measured 1 minute and 2 minutes after the administration and the mean value was determined as the Penh (enhanced pause) value for the corresponding methacholine administration dosage.
# The mice reared according to 1) of Experimental methods were used. Specifically, PBS (sham) or 120 μg of GCE prepared according to 2) of Experimental methods was intranasally administered to the 8-week-old BALB/c mice twice a week for 3 weeks. […] On day 21, the mice were anesthetized and hyperresponsiveness to methacholine (MeCh) was measured (see 4) of Experimental methods).
# The mice reared according to 1) of Experimental methods were used. […]
# On day 21, the animals were anesthetized and hyperresponsiveness to methacholine (MeCh) was measured (see 4) of Experimental methods).
# [3] = test system: GCE-induced allergic asthma animal model; assay: H&E lung tissue observation and airway epithelial thickness, comparison with CTLA4-Ig (Test Example 5); format: in vivo, BALB/c mice
# [4] = test system: naive CD4 T cells differentiated into Th2 cells; assay: Th2 differentiation assay (Test Example 6); format: cell-based, BALB/c mice; details: 1 μM for 6 days; anti-CD3/CD28, IL-4; flow cytometry
# Description: Mouse naive CD4 T cells were isolated from the 8-week-old BALB/c mice by magnetic-activated cell sorting (MACS, naive CD4 T cell isolation kit, mouse, Miltenyi, Bergisch Gladbach, Germany).
# Then, 2.5×10^5 of the isolated cells were seeded onto anti-CD3/anti-CD28 antibody (0.1 μg/mL)-coated 96-well plates. The cells were incubated in the presence of anti-IFN-γ neutralizing antibody (5 μg/mL), IL-2 (50 U/mL), IL-4 (30 ng/mL) and PBS. After adding 1 μM dNP2-EGFP (Comparative Example 3) or 1 μM dNP2-ctCTLA-4 (Example 2) to each well for 6 days, the cells were analyzed by flow cytometry after re-stimulation, protein transport inhibitor treatment and intracellular staining with anti-mouse IFN-γ-FITC and anti-mouse IL-4-PE FACS antibodies.
# The experiment was conducted according to 8) of Experimental methods.
# MACS-sorted CD4^+ CD62L^hiCD44^− native CD4 T cells isolated from 8-week-old BALB/c mice were used. They were differentiated into Th2 cells by addition of IL-4 during activation with anti-CD3/CD28 antibodies for 6 days.
# The result is presented as mean±s.e.m. (standard error of mean) (n=3). **p<0.01. NA (non-activated) denotes a negative control group, not stimulated by cytokines or anti-TcR antibody.
# [5] = test system: GCE-induced allergic asthma animal model; assay: Lung tissue observation with PAS and Masson's trichrome stain in GCE-induced allergic asthma animal model (Test Example 3); format: in vivo, BALB/c mice; details: 10 μg intranasal together with GCE
# Description: The lung was fixed in a 10% formalin solution for a day and tissues were prepared as paraffin blocks and sectioned to 3- to 4-μm thickness using a microtome. The prepared slides were stained with PAS (periodic acid-Schiff) stain or Masson's trichrome stain.
# To evaluate the inhibitory effect of the dNP2-ctCTLA-4 fusion protein on the pathophysiology of lungs in the GCE-induced allergic asthma animal model, the lung tissues of each test group and control group of Test Example 2 was observed according to 7) of Experimental methods.
# The lung tissue of each test group and control group of Test Example 3 was imaged after staining with PAS. The red region indicates mucus-secreting goblet cells.
# The lung tissues of each test group and control group of Test Example 3 were imaged after staining with Masson's trichrome stain. The blue region indicates collagen deposition and fibrosis.
# [6] = test system: GCE-induced allergic asthma animal model; assay: Cell number and immune cell distribution in bronchoalveolar lavage fluid (Test Example 4); format: in vivo, BALB/c mice; details: 10 μg intranasal together with GCE; versus GCE-administered PBS test group
# Description: In order to collect the bronchoalveolar lavage fluid, the mouse lungs were washed with 1 mL of HBSS (Hank's balanced salt solution) with an intubated tube fluid. Total cells in the lavage fluid were counted with a hemocytometer. Then, the lavage fluid was centrifuged and the cells were prepared on slides after centrifugation at 1000 rpm for 3 minutes. The slides were stained with a Hemacolor staining kit (Merck Millipore, Darmstadt, Germany). The cells were differentially counted until the total counted number reached at least 200 according to the standard hemocytologic procedures to count macrophages and eosinophils.
# Experimental conditions were designed as in Test Example 2. A bronchoalveolar lavage fluid was obtained from each test group and control group of Test Example 2 and the inhibitory effect of eosinophil infiltration and Th2 cytokine production was investigated. The details of the design of experiments are as follows.
# as §1
# 15 minutes after the experiment was completed, a bronchoalveolar lavage fluid (BALF) was obtained by injecting 1 mL of PBS twice to each animal (see 5) of Experimental methods).
# [7] = test system: IL-13, IL-4 and IFN-γ; assay: Cytokine expression by ELISA in bronchoalveolar lavage and lung tissues, comparison with CTLA4-Ig (Test Example 5); format: in vivo, BALB/c mice; details: 10 μg intranasal together with GCE
# Description: The mice reared according to 1) of Experimental methods were used. Specifically, 120 μg of GCE prepared according to 2) of Experimental methods was intranasally administered to the 8-week-old BALB/c mice twice a week for 3 weeks.
# (standard error of mean). *p<0.05, **p<0.01.
substance,measurement,setting,value
"dNP2-ctCTLA-4: fusion protein: cell-penetrating peptide dNP2 (SEQ ID NO 1) linked to the N-terminal of the ctCTLA-4 peptide (SEQ ID NO 2) (KIKKVKKKGRKGSKIKKVKKKGRKKMLKKRSPLTTGVYVKMPPTEPECEKQFQPYFIPIN; Synthetic peptide sequence, dNP2 peptide; Synthetic peptide sequence, ctCTLA-4 peptide)",level of IFN-γ,[1]; ELISA,decreased level of IFN-γ
same,"decreased expression levels of IL-5, IL-13, IL-4 and IFN-γ in lung tissues","[1]; ELISA normalized to total protein, versus PBS test group",> 2 times
same,"decreased expression levels of IL-5, IL-13, IL-4 and IFN-γ in the bronchoalveolar lavage (BAL)","[1]; ELISA, versus PBS test group",more than 3 times
same,airway hyperresponsiveness to methacholine (airway resistance and airway elastance),[2],significantly reduced airway hyperresponsiveness
same,physiological features of the respiratory epithelium: cell infiltration and airway epithelium thickening (H&E),[3]; 10 μg intranasal together with GCE,improved physiological features of the respiratory epithelium
same,pharmacological effect relative to the existing CTLA4-Ig,"[3]; intranasal administration, GCE-induced allergic asthma animal model",2-3 times
same,cytokine production (IL-4 and/or IL-13-producing CD4 T cells) in Th2 differentiation,[4],significantly reduced cytokine production
same,fibrotic area around the bronchial regions (Masson's trichrome stain),[5],significantly reduced fibrotic area
same,inflammatory cells and goblet cells in the lungs (PAS stain),[5],significantly reduced inflammatory cells and goblet cells
same,decrease in the number of eosinophils in the bronchoalveolar lavage (BAL),[6],≥ 3 times
same,decrease in the number of macrophages in the bronchoalveolar lavage (BAL),[6],≥ 3 times
same,decrease in the number of total cells in the bronchoalveolar lavage (BAL),[6],≥ 3 times
same,levels of IL-13 and IFN-γ in the bronchoalveolar lavage (BAL) and lung tissues,[7],significantly decreased levels of IL-13 and IFN-γ

# Source: patent US20200023036A1, “PHARMACEUTICAL COMPOSITION FOR PREVENTING OR TREATING INFLAMMATORY RESPIRATORY DISEASE CONTAINING FUSION PROTEIN IN WHICH CELL-PENETRATING PEPTIDE AND CTCTLA4 PEPTIDE ARE FUSED AS ACTIVE INGREDIENT” (IUCF-HYU (INDUSTRY-UNIVERSITY COOPERATION FOUNDATION HANYANG, priority 2017, published 2020)
